This note sets out measurements from EP0334055A2, “Substituted benzoxazinones, several processes and intermediates for their preparation and their use as herbicides” (BAYER AG, priority 1988, dated 1989).

For assay [1], the system named is Testpflanzen. Put plainly: Post-emergence test (herbicidal damage to test plants). The format is in vivo. Particulars: plants 5 - 15 cm, 2000 l Wasser/ha, damage rated after three weeks, compared with Vergleichssubstanz (A) (Oxadiazone/Ronstar). From the text:
Lösungsmittel: 5 Gewichtsteil Aceton Emulgator: 1 Gewichtsteil Alkylarylpolyglykolether
(§1) Zur Herstellung einer zweckmäßigen Wirkstoffzubereitung vermischt man 1 Gewichtsteil Wirkstoff mit der angegebenen Menge Lösungsmittel, gibt die angegebene Menge Emulgator zu und verdünnt das Konzentrat mit Wasser auf die gewünschte Konzentration.
Mit der Wirkstoffzubereitung spritzt man Testpflanzen, welche eine Höhe von 5 - 15 cm haben so, daß die jeweils gewünschten Wirkstoffmengen pro Flächeneinheit ausgebracht werden. Die Konzentration der Spritzbrühe wird so gewählt, daß in 2000 l Wasser/ha die jeweils gewünschten Wirkstoffmengen ausgebracht werden. Nach drei Wochen wird der Schädigungsgrad der Pflanzen bonitiert in % Schädigung im Vergleich zur Entwicklung der unbehandelten Kontrolle.
Es bedeuten: 0 % = keine Wirkung (wie unbehandelte Kontrolle) 100 % = totale Vernichtung

For assay [2], the system named is Testpflanzen. Nature of the assay: Pre-emergence test (herbicidal damage to test plants). Particulars: damage rated after three weeks against untreated control, compared with Vergleichssubstanz (A) (Oxadiazone/Ronstar). It counts as in vivo.
Excerpt: Lösungsmittel: 5 Gewichtsteile Aceton Emulgator: 1 Gewichtsteil Alkylarylpolyglykolether
as §1
Samen der Testpflanzen werden in normalen Boden ausgesät und nach 24 Stunden mit der Wirkstoffzubereitung begossen. Dabei hält man die Wassermenge pro Flächeneinheit zweckmäßigerweise konstant. Die Wirkstoffkonzentration in der Zubereitung spielt keine Rolle, entscheidend ist nur die Aufwandmenge des Wirkstoffs pro Flächeneinheit. Nach drei Wochen wird der Schädigungsgrad der Pflanzen bonitiert in % Schädigung im Vergleich zur Entwicklung der unbehandelten Kontrolle. Es bedeuten: 0 % = keine Wirkung (wie unbehandelte Kontrolle) 100 % = totale Vernichtung

Turning to `CC(C)(C)c1nn(-c2cc3c(cc2F)OCC(=O)N3)c(=O)o1` [Beispiel 3, 7-Fluor-6-(2-tert-butyl-5-oxo-4,5-dihydro-1H-1,3,4-oxadiazol-3-yl)-3,4-dihydro-3-oxo-2H-1,4-benzoxazin], the “Wirksamkeit gegenüber der Vergleichssubstanz (A)” value in assay [1] and in assay [2] was “deutliche Überlegenheit” throughout.
Take “7-Fluor-6-trimethylpyrazolyl-4-propargyl-3,4-dihydro-3-oxo-2H-1,4-benzoxazin [Beispiel 4]”: the “Wirksamkeit gegenüber der Vergleichssubstanz (A)” value in assay [1] and in assay [2] was “deutliche Überlegenheit” in each case.
With `C#CCN1C(=O)COc2cc(F)c(-n3nc(C(C)(C)C)oc3=O)cc21` [Beispiel 5, 7-Fluor-4-propargyl-6-(2-tert-butyl-5-oxo-4,5-dihydro-1H-1,3,4-oxadiazol-3-yl)-3,4-dihydro-3-oxo-2H-1,4-benzoxazin], the “Wirksamkeit gegenüber der Vergleichssubstanz (A)” value in assay [1] and in assay [2] was “deutliche Überlegenheit” each time.
On to `C#CCN1C(=O)COc2cc(F)c(-n3nc(C)c(Cl)c3C)cc21` [Beispiel 24, 7-Fluor-6-(3,5-dimethyl-4-chlorpyrazol)-4-propargyl-3,4-dihydro-3-oxo-2H-1,4-benzoxazin], for which, in assay [2], the “Wirksamkeit gegenüber der Vergleichssubstanz (A)” value is listed as “deutliche Überlegenheit”.
Turning to “2-(3,4-Dihydro-3-oxo-4-propargyl-2H-1,4-benzoxazinyl)-3-chloro-4,5,6,7-tetrahydro-2H-indazol [Beispiel 31]”, the “Wirksamkeit gegenüber der Vergleichssubstanz (A)” value in assay [1] and in assay [2] was “deutliche Überlegenheit” each time.
Regarding `O=C1COc2ccc(-n3nc4c(c3Cl)CCCC4)cc2N1` [Beispiel 30, 2-(3,4-dihydro-3-oxo-2H-1,4-benzoxazinyl)-3-chloro-4,5,6,7-tetrahydro-2H-indazol], the “Wirksamkeit gegenüber der Vergleichssubstanz (A)” value in assay [2] was “deutliche Überlegenheit”.
